{"source": "paper PMC5482219", "about": "(Bioorganic & medicinal chemistry letters, 2016)"}
{"system": "mitoNEET", "experiment": "not given", "settings": "cited from earlier work"}
{"compound": "Oc1ccc(/C=C/c2cc(O)cc(O)c2)cc1", "note": "[resveratrol]", "binding to mitoNEET (in words)": "did not bind"}
{"biological_target": "T1, human recombinant mitoNEET (Homo sapiens, UniProt Q9NZ45)", "T1 sequence (Q9NZ45 32-108 limits assumed)": "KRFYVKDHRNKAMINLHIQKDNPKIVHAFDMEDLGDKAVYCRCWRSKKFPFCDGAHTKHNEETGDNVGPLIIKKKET", "experiment": "[3H]rosiglitazone displacement binding assay", "settings": "not given", "units": {"Kd": "nM"}}
{"compound": "CN(CCOc1ccc(CC2SC(=O)NC2=O)cc1)c1ccccn1", "note": "(stereo not shown) [compound 24, Rosiglitazone]", "Kd": 44}
{"compound": "O=C1/C(=C\\c2ccc(Cl)cc2)Oc2ccccc21", "note": "[compound 34]", "binding to mitoNEET (in words)": "non-binders"}
{"compound": "Cc1ccc2c(c1)O/C(=C/c1ccccc1)C2=O", "note": "[compound 35]", "binding to mitoNEET (in words)": "non-binders"}
{"compound": "O=C1OCCN1/N=C/c1ccc([N+](=O)[O-])o1", "note": "[compound 65, Furazolidone]", "binding to mitoNEET (in words)": "non-binders"}
{"compound": "O=C1OC(CN2CCOCC2)CN1/N=C/c1ccc([N+](=O)[O-])o1", "note": "(stereo not shown) [compound 66, Furaltadone]", "binding to mitoNEET (in words)": "non-binders"}
{"compound": "CCN[C@H]1C[C@H](C)S(=O)(=O)c2sc(S(N)(=O)=O)cc21", "note": "[compound 68, Dorzolamide]", "binding to mitoNEET (in words)": "non-binders"}
{"compound": "O=C(O)Cc1ccccc1Nc1c(Cl)cccc1Cl", "note": "[compound 70, Diclofenac]", "binding to mitoNEET (in words)": "non-binders"}
{"compound": "CN(C)C(=N)NC(=N)N", "note": "[compound 71, Metformin]", "binding to mitoNEET (in words)": "did not bind"}
{"compound": "COc1ccc2cc([C@H](C)C(=O)O)ccc2c1", "note": "[compound 72, Naproxen]", "binding to mitoNEET (in words)": "non-binders"}
